Results taken from patent publication US5043166A, “Liposome/anthraquinone drug composition and method” (priority 1989, dated 1991).
Read-outs that look alike come from different tables or passages of the source. One block for each molecule: values may come before it.

Assays:
[1] = chemical modification of DXR in stored liposomes; assay type: physicochemical; conditions: stored anoxic 1 day at 4° C.
Experimental: The liposomes were stored under anoxic conditions for 1 day at 4° C., as above. Chemical modification of the drug was detected both by fluorescence emission spectroscopy and by assaying the change in drug toward a more lipophilic species, as described in Section A above.

[2] = prior to or concurrent with DXR administration; cited from earlier work
[3] = Fe^3+; cited from earlier work
[4] = Ca^2+; cited from earlier work
[5] = Mg^2+; cited from earlier work
[6] = Zn^2+; cited from earlier work
[7] = Ni^2+; cited from earlier work
[8] = Co^2+; cited from earlier work
[9] = Cu^2+; cited from earlier work
[10] = Fe^2+; cited from earlier work
[11] = in vivo; cited from earlier work
[12] = peroxidation in liposomes with chelators; assay type: physicochemical

Compound: Cc1c(C)c2c(c(C)c1O)CCC(C)(CCCC(C)CCCC(C)CCCC(C)C)O2 (stereo not drawn) [α-T, alpha-tocopherol]
- protection against drug modification [1]: moderate protections
- reduction of cardiotoxicity [2]: effective in reducing cardiotoxicity

- protection against drug modification [1]: moderate protections
Compound: CC(=O)N(O)CCCCCNC(=O)CCC(=O)N(O)CCCCCNC(=O)CCC(=O)N(O)CCCCCN [ferrioxamine, ferrioxamine B]
- Binding Affinity [3]: 10^31
- Binding Affinity [4]: 10^2
- Binding Affinity [5]: 10^4
- Binding Affinity [6]: 10^11
- Binding Affinity [7]: 10^10
- Binding Affinity [8]: 10^11
- Binding Affinity [9]: 10^14
- Binding Affinity [10]: 10^10
- safety for parenteral use in humans [11]: proven safe for parenteral use in humans

Compound: O=C(O)CN(CCN(CC(=O)O)CC(=O)O)CCN(CC(=O)O)CC(=O)O [DTPA]
- effect on anthraquinone modification in vitro ([12]; in the presence of lipids and ferric iron): protective effect

Compound: O=C(O)CN(CCN(CC(=O)O)CC(=O)O)CC(=O)O [EDTA, ethylenediaminetetraacetic acid]
- effect on peroxidation damage in liposomes [12]: peroxidation-stimulating effect
